This passage reports Km results from publication PMC4029803, “Glutathione-Binding Site of a Bombyx mori Theta-Class Glutathione Transferase” (PLoS ONE, 2014).

Positions count from the first letter of the chain named. Names may count otherwise.

Data set [1] has as its target T1, bmGSTT (Bombyx mori, UniProt B0LB14).
T1 construct: cDNA from larval fat body; primers encode N-terminal MVLKLYYD and C-terminal AANSKL
T1 sequence (B0LB14 1-229): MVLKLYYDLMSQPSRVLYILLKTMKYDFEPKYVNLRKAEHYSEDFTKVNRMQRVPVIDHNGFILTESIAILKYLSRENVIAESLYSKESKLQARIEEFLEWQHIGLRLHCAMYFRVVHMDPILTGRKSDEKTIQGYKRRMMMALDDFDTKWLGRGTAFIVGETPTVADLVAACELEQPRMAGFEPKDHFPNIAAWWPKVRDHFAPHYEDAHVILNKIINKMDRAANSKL
The experiment in a line: spectrophotometric GST assay, […] nm. The format is biochemical. Conditions: 5 mM GSH; Table 1 activity at pH 8; read-out: WT.

The target of data set [2] is T2, bmGSTT (Bombyx mori, UniProt B0LB14, E66A).
T2 construct: cDNA from larval fat body; primers encode N-terminal MVLKLYYD and C-terminal AANSKL
T2 sequence (B0LB14 1-229 E66A): T1 sequence (B0LB14 1-229) with E66A
The data set is described as follows: spectrophotometric GST assay, […] nm. The note with it: 5 mM GSH; read-out: bmGSTT mutants / E66A. The format is biochemical.

The target in data set [3] is T3, bmGSTT (Bombyx mori, UniProt B0LB14, R107A).
T3 construct: cDNA from larval fat body; primers encode N-terminal MVLKLYYD and C-terminal AANSKL
T3 sequence (B0LB14 1-229 R107A): T1 sequence (B0LB14 1-229) with R107A
The data set is described as follows: spectrophotometric GST assay, […] nm. The format is biochemical. The note with it: 5 mM GSH; read-out: bmGSTT mutants / R107A.

For data set [4], the target named is T4, bmGSTT (Bombyx mori, UniProt B0LB14, H40A).
T4 construct: cDNA from larval fat body; primers encode N-terminal MVLKLYYD and C-terminal AANSKL
T4 sequence (B0LB14 1-229 H40A): T1 sequence (B0LB14 1-229) with H40A
The data set is described as follows: spectrophotometric GST assay, […] nm. The format is biochemical. The note with it: 5 mM GSH; read-out: bmGSTT mutants / H40A.

Substrate in data set [5]: O=[N+]([O-])c1ccc(CCBr)cc1
The experiment in a line: purified protein. The note with it: 5 mM GSH.

Regarding `O=[N+]([O-])c1ccc(Cl)c([N+](=O)[O-])c1` [CDNB, 1-chloro-2,4-dinitrobenzene], the Km in data set [1] was found to be 1500 µM; in data set [2] it was 12000 µM; in data set [3], 960 µM; in data set [4] it was 520 µM.

B1: bmGSTT (Bombyx mori; H40A) (protein)
chain: T1 sequence (B0LB14 1-229) with H40A
For the molecule B1, in data set [5], the Km is recorded as 2.3 (0.22) mM.

B2: bmGSTT (Bombyx mori) (protein)
chain: T1 sequence (B0LB14 1-229)
Turning to B2, the Km in data set [5] (Table 1 activity at pH 8) is 0.13 (0.03) mM.

B3: bmGSTT (Bombyx mori; V54A) (protein)
chain: T1 sequence (B0LB14 1-229) with V54A
As for B3, the Km in data set [5] is given as 0.50 (0.083) mM.

B4: bmGSTT (Bombyx mori; R107A) (protein)
chain: T1 sequence (B0LB14 1-229) with R107A
Consider B4, for which the Km in data set [5] is 0.52 (0.071) mM.
